Measured values reported in ChEMBL document CHEMBL5291721, “A preclinical secondary pharmacology resource illuminates target-adverse drug reaction associations of marketed drugs” (Nat Commun, 2023).

Legend:
[1] = molecular target: T1, Adenosine receptor A1 (Homo sapiens, UniProt P30542)
T1 sequence (P30542 whole entry): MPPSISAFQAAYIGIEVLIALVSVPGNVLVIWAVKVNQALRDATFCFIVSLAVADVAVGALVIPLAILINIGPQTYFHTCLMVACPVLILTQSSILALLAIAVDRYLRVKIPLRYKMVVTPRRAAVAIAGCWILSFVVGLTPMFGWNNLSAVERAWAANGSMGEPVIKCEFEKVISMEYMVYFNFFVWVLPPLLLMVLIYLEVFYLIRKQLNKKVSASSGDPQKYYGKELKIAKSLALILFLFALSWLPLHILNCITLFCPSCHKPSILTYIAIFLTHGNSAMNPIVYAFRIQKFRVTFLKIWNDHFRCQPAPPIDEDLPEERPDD

[2] = molecular target: T2, Adenosine receptor A3 (Homo sapiens, UniProt P0DMS8)
T2 sequence (P0DMS8 whole entry): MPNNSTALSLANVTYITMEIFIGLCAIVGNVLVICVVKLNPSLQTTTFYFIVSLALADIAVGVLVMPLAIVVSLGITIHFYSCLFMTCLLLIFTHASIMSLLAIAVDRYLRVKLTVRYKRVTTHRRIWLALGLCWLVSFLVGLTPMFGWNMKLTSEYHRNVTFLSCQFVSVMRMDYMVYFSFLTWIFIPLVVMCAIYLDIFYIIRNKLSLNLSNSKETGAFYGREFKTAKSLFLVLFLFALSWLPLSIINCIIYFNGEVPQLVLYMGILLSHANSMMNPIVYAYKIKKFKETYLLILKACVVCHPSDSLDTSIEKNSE

[3] = molecular target: T3, Alpha-2B adrenergic receptor (Homo sapiens, UniProt P18089)
T3 sequence (P18089 whole entry): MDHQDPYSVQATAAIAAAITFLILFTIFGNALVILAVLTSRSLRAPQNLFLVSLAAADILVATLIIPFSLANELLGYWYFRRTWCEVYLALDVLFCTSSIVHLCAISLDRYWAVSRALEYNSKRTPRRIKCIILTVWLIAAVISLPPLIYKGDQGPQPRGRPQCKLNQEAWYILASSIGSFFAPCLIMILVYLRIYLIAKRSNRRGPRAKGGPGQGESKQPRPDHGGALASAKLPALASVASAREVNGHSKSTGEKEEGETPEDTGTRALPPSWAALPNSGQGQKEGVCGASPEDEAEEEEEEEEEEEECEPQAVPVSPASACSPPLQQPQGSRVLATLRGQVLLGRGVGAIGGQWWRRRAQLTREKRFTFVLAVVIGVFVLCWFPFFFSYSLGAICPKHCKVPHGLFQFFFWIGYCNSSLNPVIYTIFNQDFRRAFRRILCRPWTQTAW

[4] = molecular target: Cannabinoid receptor 1 (Homo sapiens, UniProt P21554); format: functional, cell-based
[5] = molecular target: Glutamate receptor ionotropic, NMDA 1 (Rattus norvegicus, UniProt P35439)
[6] = molecular target: Histamine H1 receptor (Homo sapiens, UniProt P35367)
[7] = molecular target: Histamine H2 receptor (Homo sapiens, UniProt P25021); format: functional, cell-based
[8] = molecular target: Melanocortin receptor 3 (Homo sapiens, UniProt P41968)
[9] = molecular target: Motilin receptor (Homo sapiens, UniProt O43193)
[10] = molecular target: T4, Neuropeptide Y receptor type 1 (Homo sapiens, UniProt P25929)
T4 sequence (P25929 whole entry): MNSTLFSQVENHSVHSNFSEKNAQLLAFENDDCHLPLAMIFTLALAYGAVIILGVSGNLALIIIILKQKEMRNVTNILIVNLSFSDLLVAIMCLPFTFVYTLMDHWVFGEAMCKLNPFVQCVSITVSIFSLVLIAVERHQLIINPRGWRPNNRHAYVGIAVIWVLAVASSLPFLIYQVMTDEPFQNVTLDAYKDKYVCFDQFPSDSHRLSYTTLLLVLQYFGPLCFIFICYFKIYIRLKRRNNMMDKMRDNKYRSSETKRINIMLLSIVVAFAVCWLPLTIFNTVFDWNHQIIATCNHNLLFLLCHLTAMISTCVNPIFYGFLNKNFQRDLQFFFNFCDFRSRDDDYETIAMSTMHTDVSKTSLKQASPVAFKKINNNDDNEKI

[11] = molecular target: T5, Thromboxane A2 receptor (Homo sapiens, UniProt P21731)
T5 sequence (P21731 whole entry): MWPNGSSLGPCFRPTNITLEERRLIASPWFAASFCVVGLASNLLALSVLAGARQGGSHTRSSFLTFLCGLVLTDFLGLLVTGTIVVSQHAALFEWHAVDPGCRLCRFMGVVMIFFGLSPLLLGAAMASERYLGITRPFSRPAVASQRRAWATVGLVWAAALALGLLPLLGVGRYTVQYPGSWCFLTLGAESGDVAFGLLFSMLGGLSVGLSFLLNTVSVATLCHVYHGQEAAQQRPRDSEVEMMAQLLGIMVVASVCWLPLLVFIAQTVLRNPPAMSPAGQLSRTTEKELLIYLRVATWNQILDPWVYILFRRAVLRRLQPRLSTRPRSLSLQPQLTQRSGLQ

[12] = molecular target: Sodium-dependent dopamine transporter (Homo sapiens, UniProt Q01959)
[13] = molecular target: Sodium-dependent noradrenaline transporter (Homo sapiens, UniProt P23975)
[14] = molecular target: T6, Alpha-1A adrenergic receptor (Homo sapiens, UniProt P35348); format: functional, cell-based
T6 sequence (P35348 whole entry): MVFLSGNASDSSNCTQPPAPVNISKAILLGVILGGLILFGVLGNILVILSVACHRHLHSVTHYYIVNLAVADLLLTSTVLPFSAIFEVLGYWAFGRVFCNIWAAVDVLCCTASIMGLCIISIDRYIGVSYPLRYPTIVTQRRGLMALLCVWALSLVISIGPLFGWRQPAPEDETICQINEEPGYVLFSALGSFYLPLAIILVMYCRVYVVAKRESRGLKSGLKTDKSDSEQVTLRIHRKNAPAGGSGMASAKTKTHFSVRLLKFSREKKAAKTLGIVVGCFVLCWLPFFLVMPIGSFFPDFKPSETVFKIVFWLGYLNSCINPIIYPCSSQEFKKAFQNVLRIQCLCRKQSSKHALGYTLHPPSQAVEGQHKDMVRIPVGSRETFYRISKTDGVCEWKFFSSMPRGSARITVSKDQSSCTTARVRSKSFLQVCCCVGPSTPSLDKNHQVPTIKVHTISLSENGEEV
Note: assay procedure not described here.

Sequence of Cannabinoid receptor 1 (P21554 whole entry): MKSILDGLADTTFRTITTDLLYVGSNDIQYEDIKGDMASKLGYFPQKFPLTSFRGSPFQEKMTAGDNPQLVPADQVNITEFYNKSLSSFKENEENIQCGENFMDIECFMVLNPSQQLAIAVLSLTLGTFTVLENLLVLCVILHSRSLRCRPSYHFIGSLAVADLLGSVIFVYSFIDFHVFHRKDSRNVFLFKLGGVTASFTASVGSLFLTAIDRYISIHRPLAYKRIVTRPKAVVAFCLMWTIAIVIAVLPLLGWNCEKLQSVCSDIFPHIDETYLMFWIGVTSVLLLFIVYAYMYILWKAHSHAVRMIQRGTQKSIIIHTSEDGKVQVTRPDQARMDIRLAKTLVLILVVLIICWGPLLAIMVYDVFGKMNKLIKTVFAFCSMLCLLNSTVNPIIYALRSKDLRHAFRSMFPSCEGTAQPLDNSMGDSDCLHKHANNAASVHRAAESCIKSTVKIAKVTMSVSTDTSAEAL
Sequence of Melanocortin receptor 3 (P41968 whole entry): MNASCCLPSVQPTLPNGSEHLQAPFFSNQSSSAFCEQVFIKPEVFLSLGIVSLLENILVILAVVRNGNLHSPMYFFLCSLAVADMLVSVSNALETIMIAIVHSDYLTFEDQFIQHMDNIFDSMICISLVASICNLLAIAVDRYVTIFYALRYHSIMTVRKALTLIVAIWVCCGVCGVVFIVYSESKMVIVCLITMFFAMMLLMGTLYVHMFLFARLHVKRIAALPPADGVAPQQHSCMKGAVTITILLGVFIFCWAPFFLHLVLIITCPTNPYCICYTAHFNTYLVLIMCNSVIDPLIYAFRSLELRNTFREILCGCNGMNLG
Sequence of Histamine H2 receptor (P25021 whole entry): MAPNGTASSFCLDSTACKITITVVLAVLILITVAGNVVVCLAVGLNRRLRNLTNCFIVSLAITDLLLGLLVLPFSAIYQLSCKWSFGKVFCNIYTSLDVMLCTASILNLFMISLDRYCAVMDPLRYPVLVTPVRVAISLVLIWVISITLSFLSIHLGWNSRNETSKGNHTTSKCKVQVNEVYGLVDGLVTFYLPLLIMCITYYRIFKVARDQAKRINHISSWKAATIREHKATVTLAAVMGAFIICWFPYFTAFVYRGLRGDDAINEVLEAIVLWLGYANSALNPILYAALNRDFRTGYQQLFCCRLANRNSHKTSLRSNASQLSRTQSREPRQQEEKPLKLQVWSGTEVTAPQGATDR
Sequence of Sodium-dependent noradrenaline transporter (P23975 whole entry): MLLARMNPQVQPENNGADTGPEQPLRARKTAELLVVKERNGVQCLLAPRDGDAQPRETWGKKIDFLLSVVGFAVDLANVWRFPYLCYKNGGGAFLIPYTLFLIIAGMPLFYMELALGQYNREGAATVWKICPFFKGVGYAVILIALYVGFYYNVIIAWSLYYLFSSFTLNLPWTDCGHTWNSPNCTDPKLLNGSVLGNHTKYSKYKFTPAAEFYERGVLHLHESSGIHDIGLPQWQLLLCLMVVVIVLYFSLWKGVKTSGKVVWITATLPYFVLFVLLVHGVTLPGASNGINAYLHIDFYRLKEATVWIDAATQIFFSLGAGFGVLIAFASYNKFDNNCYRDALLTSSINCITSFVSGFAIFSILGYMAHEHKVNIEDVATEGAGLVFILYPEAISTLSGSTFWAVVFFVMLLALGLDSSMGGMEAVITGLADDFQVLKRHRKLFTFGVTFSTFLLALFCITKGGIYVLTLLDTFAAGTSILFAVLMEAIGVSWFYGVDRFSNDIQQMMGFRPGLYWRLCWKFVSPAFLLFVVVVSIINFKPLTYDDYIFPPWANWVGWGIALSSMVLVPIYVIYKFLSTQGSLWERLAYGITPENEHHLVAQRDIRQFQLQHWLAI
Sequence of Sodium-dependent dopamine transporter (Q01959 whole entry): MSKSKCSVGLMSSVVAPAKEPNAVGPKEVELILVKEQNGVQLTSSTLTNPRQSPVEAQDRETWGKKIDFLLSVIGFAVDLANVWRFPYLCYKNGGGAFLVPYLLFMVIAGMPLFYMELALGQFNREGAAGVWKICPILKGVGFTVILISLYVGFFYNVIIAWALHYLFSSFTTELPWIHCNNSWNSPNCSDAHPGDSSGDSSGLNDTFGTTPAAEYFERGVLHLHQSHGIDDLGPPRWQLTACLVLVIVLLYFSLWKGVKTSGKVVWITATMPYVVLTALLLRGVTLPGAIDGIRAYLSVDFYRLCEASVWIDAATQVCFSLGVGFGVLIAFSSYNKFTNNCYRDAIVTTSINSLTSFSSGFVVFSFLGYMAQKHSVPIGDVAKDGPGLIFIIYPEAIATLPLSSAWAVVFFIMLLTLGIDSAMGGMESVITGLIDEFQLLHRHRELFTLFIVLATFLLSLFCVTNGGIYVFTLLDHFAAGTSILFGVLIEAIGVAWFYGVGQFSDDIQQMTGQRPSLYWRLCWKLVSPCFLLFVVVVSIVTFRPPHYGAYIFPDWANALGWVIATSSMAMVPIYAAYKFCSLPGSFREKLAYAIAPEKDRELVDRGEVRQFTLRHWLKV
Sequence of Histamine H1 receptor (P35367 whole entry): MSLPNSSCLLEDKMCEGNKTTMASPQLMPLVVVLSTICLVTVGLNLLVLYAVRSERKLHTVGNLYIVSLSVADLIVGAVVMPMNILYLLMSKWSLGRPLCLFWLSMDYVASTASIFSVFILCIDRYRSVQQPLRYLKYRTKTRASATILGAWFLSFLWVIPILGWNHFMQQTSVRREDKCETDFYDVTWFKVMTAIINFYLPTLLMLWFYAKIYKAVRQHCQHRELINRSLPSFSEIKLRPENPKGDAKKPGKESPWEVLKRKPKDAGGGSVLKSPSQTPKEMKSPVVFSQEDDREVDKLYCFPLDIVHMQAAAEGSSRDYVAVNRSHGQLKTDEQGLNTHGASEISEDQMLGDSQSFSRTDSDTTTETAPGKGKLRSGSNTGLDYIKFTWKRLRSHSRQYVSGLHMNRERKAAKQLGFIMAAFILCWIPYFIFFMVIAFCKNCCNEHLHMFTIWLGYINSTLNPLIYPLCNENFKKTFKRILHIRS
Sequence of Motilin receptor (O43193 whole entry): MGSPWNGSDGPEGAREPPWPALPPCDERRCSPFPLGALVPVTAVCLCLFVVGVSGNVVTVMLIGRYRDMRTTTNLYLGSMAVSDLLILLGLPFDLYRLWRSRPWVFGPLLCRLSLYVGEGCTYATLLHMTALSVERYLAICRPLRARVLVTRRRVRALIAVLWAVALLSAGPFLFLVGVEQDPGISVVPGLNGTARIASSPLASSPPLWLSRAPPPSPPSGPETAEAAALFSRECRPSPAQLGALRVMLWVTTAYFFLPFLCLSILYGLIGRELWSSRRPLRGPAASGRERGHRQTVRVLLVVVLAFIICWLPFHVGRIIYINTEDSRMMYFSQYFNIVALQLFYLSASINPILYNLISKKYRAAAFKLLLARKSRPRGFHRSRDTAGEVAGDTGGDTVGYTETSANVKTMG

Row | Compound | AC50 [1] [µM] | AC50 [2] [µM] | AC50 [3] [µM] | AC50 [4] [µM] | AC50 [5] [µM] | AC50 [6] [µM] | AC50 [7] [µM] | AC50 [8] [µM] | AC50 [9] [µM] | AC50 [10] [µM] | AC50 [11] [µM] | AC50 [12] [µM] | AC50 [13] [µM] | AC50 [14] [µM]
1 | TOCOFERSOLAN | > 30 | > 30 | > 30 | > 30 | > 30 | > 30 | > 30 | > 30 | > 30 | > 30 | > 30 | > 30 | > 30 | > 30
2 | C1=Cc2cccc(OCC3CNCCO3)c2C1 (stereo unspecified) [INDELOXAZINE] | > 30 | > 30 | > 30 | > 30 | > 30 | 17 | > 30 | > 30 | > 30 | > 30 | > 30 | 12 | 0.7 | > 30
3 | O=C(C[S+]([O-])C(c1ccccc1)c1ccccc1)NO (stereo unspecified) | > 30 | > 30 | > 30 | > 30 | > 30 | > 30 | > 30 | > 30 | > 30 | > 30 | > 30 | 9.4 | > 30 | > 30
4 | C#C[C@]1(O)CC[C@H]2[C@@H]3CCC4=CCCC[C@@H]4[C@H]3CC[C@@]21C [LYNESTRENOL] | > 30 | > 30 | > 30 | > 30 | > 30 | > 30 | > 30 | > 30 | > 30 | > 30 | > 30 | > 30 | > 30 | > 30
5 | CCCCCN(C)CCC(O)(P(=O)(O)O)P(=O)(O)O [IBANDRONIC ACID] | > 30 | > 30 | > 30 | > 30 | > 30 | > 30 | > 30 | > 30 | > 30 | > 30 | > 30 | > 30 | > 30 | > 30
6 | CCCCOc1cc(C(=O)NCCN(CC)CC)c2ccccc2n1 [DIBUCAINE] | > 30 | > 30 | > 10 | > 30 | > 10 | > 10 | > 10 | > 30 | > 30 | > 30 | > 30 | > 10 | > 10 | > 30
7 | CC/C=C\C/C=C\C/C=C\CCCCCCCC(=O)O [LINOLENIC ACID] | > 30 | > 30 | > 30 | > 30 | > 30 | > 30 | > 30 | > 30 | > 30 | > 30 | > 30 | > 30 | > 30 | > 30
8 | COc1ccc(C(=O)N2CCN(c3ccc4c(c3)CCC(=O)N4)CC2)cc1OC [VESNARINONE] | > 30 | > 30 | > 30 | > 30 | > 30 | > 30 | > 30 | > 30 | > 30 | > 30 | > 30 | > 30 | > 30 | > 30
9 | O=C(O)Cc1cn(-c2ccccc2)nc1-c1ccc(Cl)cc1 [LONAZOLAC] | > 30 | > 30 | > 30 | > 30 | > 30 | > 30 | > 30 | > 30 | > 30 | > 30 | > 30 | > 30 | > 30 | > 30
